Converted amounts (≈) assume the structure as drawn.
Tests used:
Format in all cases: functional
[1] = test system: Enterococcus faecalis; assay: Antibacterial activity against Enterococcus faecalis ATCC 29212
[2] = test system: Neisseria gonorrhoeae; assay: Antibacterial activity against Neisseria gonorrheae ATCC 49226
[3] = test system: Micrococcus luteus; assay: Antibacterial activity against Micrococcus luteus Presque Isle 456
[4] = test system: Streptococcus pneumoniae; assay: Antibacterial activity against Streptococcus pneumoniae ATCC 6303
[5] = test system: Staphylococcus aureus; assay: Antibacterial activity against Staphylococcus aureus ATCC 29213
[6] = test system: KM-20L2; assay: Cytotoxicity against human KM20L2 cells after 48 hrs by SRB assay; conditions: KM-20L2, 48 h
[7] = test system: BXPC-3; assay: Cytotoxicity against human BxPC3 cells after 48 hrs by SRB assay; conditions: BXPC-3, 48 h

- MIC [1]: 16 µg/mL (≈ 47 µM)
- MIC [2]: 8 µg/mL (≈ 23.5 µM)
- MIC [3]: 16 µg/mL (≈ 47 µM)
- MIC [4]: 32 µg/mL (≈ 94 µM)
- MIC [5]: 64 µg/mL (≈ 188 µM)
SMILES: COc1cccc2c1cc(C(=O)O)c1c(C(=O)O)cc3c(c12)OCO3 [PAPILISTATIN]
- GI50 [6]: 0.096 µg/mL (≈ 0.282 µM)
- GI50 [7]: 0.093 µg/mL (≈ 0.273 µM)

— ChEMBL document CHEMBL1154896, “Antineoplastic agents. 573. isolation and structure of papilistatin from the papilionid butterfly Byasa polyeuctes termessa” (2010)
